The subject of data set [1] is Vero C1008. The data set is described as follows: Cytotoxicity against African green monkey Vero E6 cells at 1 mM incubated for 24 hrs by CCK-8 method. In kind it is toxicity, cell-based. To be noted: chlorocebus sabaeus, vero c1008, 24 h, 1000 µM. In general terms: Tetrazolium dyes change colour on reduction, which living cells bring about.
The target in data set [2] is T1, Replicase polyprotein 1ab (Severe acute respiratory syndrome coronavirus 2, UniProt P0DTD1). Nature of the data set: Inhibition of SARS-CoV-2 RdRp.
In data set [3] the target is Replicase polyprotein 1ab (Severe acute respiratory syndrome coronavirus 2) (UniProt P0DTD1). The data set is described as follows: Inhibition of SARS-CoV-2 N/C terminal 6his tagged 3CL protease extracted from Escherichia coli BL21(DE3) using CA-AVLQSGFR-Lys(Dnp)-Lys-NH2 as fluorescent substrate preincubated for 10 mins followed by substrate addition and measured every 10 sec for 10 mins in presence of DTT by FRET analysis relative to control. On the set-up: concentration or dose not given beside the values. To be noted: time 20.0 min.

In data set [4] the target is T1, Replicase polyprotein 1ab. The data set is described as follows: Inhibition of SARS-CoV-2 N/C terminal 6his tagged 3CL protease extracted from Escherichia coli BL21(DE3) using CA-AVLQSGFR-Lys(Dnp)-Lys-NH2 as fluorescent substrate preincubated for 1 hr followed by substrate addition and measured after 20 mins by FRET analysis.
Data set [5] deals with T1, Replicase polyprotein 1ab. Nature of the data set: Inhibition of SARS-CoV-2 PL protease.
Data set [6] addresses Replicase polyprotein 1ab (Severe acute respiratory syndrome coronavirus 2) (UniProt P0DTD1). Nature of the data set: Inhibition of SARS-CoV-2 N/C terminal 6his tagged 3CL protease extracted from Escherichia coli BL21(DE3) using CA-AVLQSGFR-Lys(Dnp)-Lys-NH2 as fluorescent substrate preincubated for 1 hr followed by substrate addition and measured after 20 mins by FRET analysis relative to control. To be noted: time 80.0 min. On the set-up: concentration or dose not given beside the values.

The record followed here is ChEMBL document CHEMBL6083261, “Structure-guided design and photochemical synthesis of new carbamo(dithioperoxo)thioates with improved potencies to SARS-CoV-2 3CLpro” (Bioorg Med Chem, 2024).

Usually IC50 stands for the concentration that inhibits the measured activity by half. As a reminder, the inhibition is the relative decrease from the control value, in per cent.

As to `OC1CCN(C(=S)SSC(=S)N2CCC(O)CC2)CC1`, the Activity entry in data set [1] was “Toxic”. Moreover, the IC50 in data set [2] worked out at 83.1 µM; in data set [4] it was 0.92 µM; in data set [5], 0.58 µM. For the same compound, the inhibition in data set [3] is 60%.

For the compound `COC(=O)CCSSC(=S)N1CCC(O)CC1`, the Activity entry in data set [1] was “Toxic”. Also, the figures for the half-inhibitory concentration (IC50) in data set [2], in data set [4] and in data set [5] were greater than 100 µM, 0.47 µM and greater than 100 µM, respectively. Further, the inhibition in data set [6] was greater than 95%.

On to `S=C(SSC(=S)N1CCCCC1)N1CCCCC1` [BIS(PIPERIDINYLTHIOCARBONYL)DISULFIDE], for which the IC50 turned out to be 10.2 µM in data set [2], 1.48 µM in data set [4] and 0.07 µM in data set [5].

For `CCN(CC)C(=S)SSc1ccccc1`, the concentration for half-maximal inhibition (IC50) was greater than 100 µM in data set [2], 1070 µM in data set [4] and greater than 100 µM in data set [5].

As to `S=C(SSc1ccccc1)N1CCCC1`, the concentration for half-maximal inhibition (IC50) was 12 µM in data set [2], 0.4 µM in data set [4] and 0.22 µM in data set [5].

`COc1ccc(SSC(=S)N2CCC(O)CC2)cc1`: the Activity entry in data set [1] is given as “Toxic”. In addition, the IC50 in data set [2] was found to be 8.52 µM; in data set [4], 0.23 µM; in data set [5], 0.15 µM. For the same compound, the inhibition in data set [3] is 60%; in data set [6], greater than 95%.

Turning to `S=C(SSC(=S)N1CCOCC1)N1CCOCC1`, the IC50 in data set [2] came out at 53.6 µM; in data set [4] it was 1.22 µM; in data set [5] it was 0.39 µM.

Turning to `OC1CCN(C(=S)SSc2ccc(C(F)(F)F)cc2)CC1`, the Activity result in data set [1] is reported as “Toxic”. For the same compound, the IC50 in data set [2] amounted to 15.9 µM; in data set [4] it was 0.14 µM; in data set [5], 0.04 µM. Also, the inhibition was 60% in data set [3] and greater than 95% in data set [6].

For `OC1CCN(C(=S)SSc2ccccc2)CC1`, in data set [1], the Activity entry was “Toxic”. The values for the IC50 in data set [2], in data set [4] and in data set [5] were greater than 100 µM, 0.35 µM and greater than 100 µM, respectively. Further, the values for the inhibition in data set [3] and in data set [6] were 60% and greater than 95%, respectively.

With `O=[N+]([O-])c1ccc(SSC(=S)N2CCC(O)CC2)cc1`, the Activity entry in data set [1] was “Toxic”. In addition, the concentration for half-maximal inhibition (IC50) was 45.6 µM in data set [2], 0.24 µM in data set [4] and 0.32 µM in data set [5]. Further, the inhibition is 60% in data set [3] and greater than 95% in data set [6].

Regarding `Oc1ccc(SSC(=S)N2CCC(O)CC2)cc1`, in data set [1], the Activity result was “Toxic”. Further, the IC50 turned out to be 97.8 µM in data set [2], 0.3 µM in data set [4] and 7.71 µM in data set [5]. In addition, the values for the inhibition in data set [3] and in data set [6] were 60% and greater than 95%, respectively.

For the compound `S=C(SSc1ccccc1)N1CCCCC1`, the figures for the IC50 in data set [2], in data set [4] and in data set [5] were greater than 100 µM, 0.64 µM and 2.5 µM, respectively.

With `OC1CCN(C(=S)SSc2ccc(F)cc2)CC1`, the Activity result in data set [1] is given as “Toxic”. Besides, the IC50 in data set [2] was found to be 9.77 µM; in data set [4] it was 0.19 µM; in data set [5], 0.1 µM. Further, the inhibition in data set [3] is 60%; in data set [6] it was greater than 95%.

As for `S=C(SSc1ccccc1)N1CCOCC1`, the figures for the concentration for half-maximal inhibition (IC50) in data set [2], in data set [4] and in data set [5] were greater than 100 µM, 0.66 µM and 1.73 µM, respectively.

Consider `S=C(SSC(=S)N1CCCC1)N1CCCC1` [BIS(PYRROLIDINYLTHIOCARBONYL)DISULFIDE], for which the IC50 in data set [2] was 8.92 µM; in data set [4], 1.34 µM; in data set [5], 0.06 µM.

`COC(=O)C1CCCN1C(=S)SSc1ccccc1` (stereo not given): the half-maximal inhibitory concentration (IC50) was found to be 57.6 µM in data set [2], 0.54 µM in data set [4] and 0.39 µM in data set [5].

For `OC1CCN(C(=S)SSCc2ccccc2)CC1`, the half-maximal inhibitory concentration (IC50) in data set [2] was determined as 21.4 µM; in data set [4] it was 0.25 µM; in data set [5], 0.33 µM. In addition, the inhibition in data set [3] was 60%; in data set [6] it was greater than 95%.
